The text below walks through data of ChEMBL document CHEMBL4020736, “Synthesis and biological evaluation of novel selective androgen receptor modulators (SARMs) Part III: Discovery of 4-(5-oxopyrrolidine-1-yl)benzonitrile derivative 2f as a clinical candidate” (Bioorg Med Chem, 2017).

Each structure is given as a SMILES string.

In data set [1] the test system is Rattus norvegicus. The data set can be described thus: Anabolic effect in castrated CD(SD)IGS rat assessed as levator ani muscle weight at 2.5 mg/kg, po bid for 4 days co-treated with testosterone propionate by Harshberger assay relative to control. Format: functional.
Data set [2] is described as follows: AUC (0 to 24 hrs) in Beagle dog at 0.1 mg/kg, iv by LC-MS/MS analysis. Format: ADME, organism-based, Canis lupus familiaris. Also on record: time < 24 hr, dose 0.1 mg/kg, route intravenous. The settings on record: in vivo.
Data set [3] concerns Rattus norvegicus. As to the kind of experiment: Induction of sexual behavior in castrated CD(SD)IGS rat assessed as pseudopregnancy rate at 1.5 mg/kg, po qd for 21 days measured on day 18 to 21 relative to control. Format: functional.
Data set [4] can be described thus: AUC (0 to 24 hrs) in Crl:CD(SD) rat at 0.1 mg/kg, iv by LC-MS/MS analysis. Format: ADME, organism-based. Also on record: dose 0.1 mg/kg, time < 24 hr, route intravenous. The settings on record: in vivo.
The nature of data set [5]: Clearance in monkey liver microsomes at 1 uM after 60 mins in presence of NADPH by UPLC analysis. The settings on record: rhesus monkey, read-out: CLH. Format: ADME, Macaca mulatta, microsome. For orientation: Liver microsomes are a subcellular fraction often used to study metabolism.
The nature of data set [6]: Total clearance in Crl:CD(SD) rat at 0.1 mg/kg, iv by LC-MS/MS analysis. The settings on record: in vivo. Format: ADME, organism-based.
The target in data set [7] is T1, Glucocorticoid receptor (Homo sapiens, UniProt P04150).
T1 sequence (P04150 whole entry): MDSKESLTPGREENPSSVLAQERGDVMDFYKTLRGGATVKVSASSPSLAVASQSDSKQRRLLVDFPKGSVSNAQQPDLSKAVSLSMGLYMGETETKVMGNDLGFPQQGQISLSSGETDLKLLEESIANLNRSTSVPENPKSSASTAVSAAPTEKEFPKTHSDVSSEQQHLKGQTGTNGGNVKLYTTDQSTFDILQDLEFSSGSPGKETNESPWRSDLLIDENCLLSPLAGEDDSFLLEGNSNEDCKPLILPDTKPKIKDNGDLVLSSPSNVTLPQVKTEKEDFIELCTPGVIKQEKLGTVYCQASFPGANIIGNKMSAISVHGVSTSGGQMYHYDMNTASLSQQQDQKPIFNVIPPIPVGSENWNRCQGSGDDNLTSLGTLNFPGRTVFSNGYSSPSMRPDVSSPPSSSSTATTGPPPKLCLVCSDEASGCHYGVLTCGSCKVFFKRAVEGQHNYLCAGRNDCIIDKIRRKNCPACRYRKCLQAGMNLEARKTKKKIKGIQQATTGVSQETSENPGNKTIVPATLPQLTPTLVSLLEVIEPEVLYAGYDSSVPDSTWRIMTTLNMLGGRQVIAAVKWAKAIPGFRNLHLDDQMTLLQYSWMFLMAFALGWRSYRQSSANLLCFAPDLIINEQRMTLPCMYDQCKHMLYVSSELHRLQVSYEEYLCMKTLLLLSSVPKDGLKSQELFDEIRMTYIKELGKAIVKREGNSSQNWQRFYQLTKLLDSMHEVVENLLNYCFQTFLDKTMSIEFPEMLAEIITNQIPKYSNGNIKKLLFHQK
The data set can be described thus: Binding affinity to GR (unknown origin).

Data set [8] is described as follows: Oral bioavailability in cynomolgus monkey at 1 mg/kg by LC-MS/MS analysis. Format: ADME, organism-based, Macaca fascicularis. The settings on record: in vivo.
Data set [9] can be described thus: AUC (0 to 24 hrs) in Beagle dog at 1 mg/kg, po by LC-MS/MS analysis. Format: ADME, organism-based, Canis lupus familiaris. Also on record: time < 24 hr, dose 1 mg/kg, route oral. The settings on record: in vivo.
Data set [10] in a line: Tmax in Crl:CD(SD) rat at 1 mg/kg, po by LC-MS/MS analysis. Format: ADME, organism-based. The settings on record: in vivo.
Data set [11] is described as follows: Clearance in rat liver microsomes at 1 uM after 15 mins in presence of NADPH by UPLC analysis. Format: ADME, microsome. The settings on record: read-out: CLH.

`CC[C@H]1[C@@H](O)CC(=O)N1c1ccc(C#N)c(C(F)(F)F)c1`: the Activity in data set [1] was found to be 129%; in [3], 100%. For the same molecule, the area under the curve AUC(0-t) at 24 h in data set [2] was found to be 150 ng·h/mL; in [4], 108 ng·h/mL; in data set [9], 1160 ng·h/mL. The microsomal CLint at 1 µM in data set [5] was 5 µL/min/mg; in data set [11], 20 to 21 µL/min/mg. This molecule gave a clearance in [6] of 15.6 mL/min/kg. Besides, the IC50 in data set [7] was greater than 10 µM. In data set [8], this molecule had a bioavailability of 48.1%. In addition, the Tmax in data set [10] worked out at 30 min.

A word on the AUC(0-t): it is the area under the concentration-time curve up to a stated or last time point. The term clearance denotes the rate of elimination divided by the concentration. In general, IC50 refers to the concentration needed to halve the response being measured. The term bioavailability denotes the share of a dose that reaches the circulation, judged against a reference dose that is usually intravenous. Usually Tmax stands for the time at which the peak concentration occurs.
